Experimental data published in patent EP3156398A1, “AGONISTS OF THE CHEMOKINE RECEPTOR CXCR3” (Friedrich-Alexander-Universität Erlangen-Nürnberg, priority 2015, dated 2017).
Where “and” joins values, the source holds several entries; their conditions need not be identical. Equal entries are not always repeated. Where two headings read alike, the source gives them in different places.

What was measured:
CXCR3 = target: T1, CXCR3 (Homo sapiens, UniProt P49682); assay: [35S]GTPγS incorporation assay; assay type: biochemical; conditions: membrane preparations of HEK293T stably expressing CXCR3; for CXCR3 Efficacy (%) ± SEM / Emax: % of CXCL11 mediated effect; for Emax: read-out: CXCR3 Efficacy (%) ± SEM; for CXCR3 pEC50 ± SEM: mean of three experiments in triplicate; for EC50: read-out: EC50 / potency in [35S]GTPγS incorporation
T1 construct: expressed in transfected cells; host or cells: HEK293 / HEK293T cells, stably transfected; membrane preparations
T1 sequence (P49682 1-368): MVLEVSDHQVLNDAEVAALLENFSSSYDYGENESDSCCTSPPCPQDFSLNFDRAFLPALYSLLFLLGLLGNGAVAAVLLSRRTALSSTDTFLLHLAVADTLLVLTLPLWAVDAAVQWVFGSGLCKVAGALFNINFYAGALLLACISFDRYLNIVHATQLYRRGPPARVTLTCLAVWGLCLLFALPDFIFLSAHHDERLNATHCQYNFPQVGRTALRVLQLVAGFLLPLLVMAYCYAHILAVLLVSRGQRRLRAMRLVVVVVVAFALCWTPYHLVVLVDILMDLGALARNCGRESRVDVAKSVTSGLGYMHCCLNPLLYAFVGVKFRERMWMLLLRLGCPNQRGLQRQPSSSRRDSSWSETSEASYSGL
Procedure: Membrane preparation for allosteric radioligand RAMX3 displacement and [^35S]GTPγS incorporation assays: The human embryonic kidney (HEK) cells stably expressing the human CXCR3 receptor were cultured in 150-mm cell culture plates in DMEM/F-12 supplemented with 10% fetal bovine serum (FBS), 2 mM L-glutamine, 1% penicillin-streptomycin, 300 µgmL^-1 Zeocin and incubated at 37 °C in a humid atmosphere with 5% CO2. At 100% confluency cells were washed with PBS twice, treated with Tris EDTA buffer (10 mM Tris, 0.5 mM EDTA, 5 mM KCl, 140 mM NaCl, pH 7.4), and harvested using a cell scraper. Cells were pelleted at 1100×g for 8 min at 4 °C, resuspended in Tris-EDTA-MgCl2 buffer (50mM Tris, 5 mM EDTA, 1.5 mM CaCl2, 5 mM MgCl2, 5 mM KCl, 120 mM NaCl, pH 7.4) and followed by lysis with an Ultra-Turrax. After centrifugation at 50,000•g, at 4°C for 18 min the membranes were resuspended in the binding buffer (50 mM Tris, 1 mM EDTA, 5 mM MgCl2 and subsequently homogenized with a glass-Teflon homogenizer (20 strokes). The homogenized membranes were shock-frozen in liquid nitrogen and stored at -80°C. The protein concentration was determined with the Lowry method with bovine serum albumin used as a standard.^35
[^35S]GTPγS incorporation assay: The [^35S]GTPγS incorporation assay was performed on membrane preparations of stably transfected HEK293 cells that expressed the CXCR3 receptor. The assay was carried out in 96-well plates at the final volume of 200 µL. The incubation buffer contained 20 mM HEPES, 10 mM MgCl2•6H20,100 mM NaCl and 100 mg/L saponin (pH 7.4). Membranes (30 µgmL^-1 of membrane protein), various concentrations of test compound and CXCL11, and 1 µM GDP were preincubated in the absence of [^35S]GTPγS for 30 min at 37 °C. After the addition of 0.10 nM [^35S]GTPγS membranes were incubated for additional 30 min at 37 °C. Incubation was terminated by filtration through Whatman GF/B filters soaked with ice cold PBS. The filter-bound radioactivity was measured as described above. Three to four experiments per compound were performed with each concentration in triplicate.
The activation of G proteins was explored in terms of CXCR3 mediated [^35S]GTPγS incorporation. In the [^35S]GTPγS incorporation assay the membrane preparations of HEK293T cells stably expressing CXCR3 were used. The activation of G proteins was monitored as the incorporation of [^35S]GTPγS and thus increase in the incorporated radioactivity. The potency and efficacy of the novel compounds was first compared to the reference compound 46/VUF10661. […] Table 1. The ability of the 46/VUF10661 based positive allosteric modulators to activate CXCR3 as measured in the [35S]GTPγS incorporation assay.[a]

CXCR3-PK1 = target: T2, CXCR3-PK1 (Homo sapiens, UniProt P49682); assay: β-arrestin 2 recruitment assay (PathHunter, DiscoveRx), CXCR3-PK1 construct; assay type: cell-based
T2 construct: expressed in transfected cells; host or cells: HEK293 cells stably expressing beta-gal enzyme acceptor (PathHunter, DiscoveRx), transiently transfected
T2 sequence (P49682 1-368): T1 sequence (P49682 1-368)
Procedure: (§1) β-arrestin 2 recruitment assay: The measurement of β-arrestin recruitment was performed utilizing the PathHunter assay purchased from DiscoveRx (DiscoveRx, Birmingham, U.K.) according to the manufacturer's protocol. HEK293 cells stably expressing β-gal enzyme acceptor were transiently transfected with the ProLink (PK1) tagged wildtype CXCR3 receptor using the TransIT-293 transfection reagent from Mirus (purchased from MoBiTec, Goettingen, Germany). The assay was carried out in 384-well plates containing 2000 cells in 20 µL. After incubation at 37°C (5% CO2, 95% relative humidity) overnight, various concentrations of test compounds or CXCL11 (prepared in PBS, pH 7.4, containing 0.20% BSA) were added and the incubation continued for 4 h. Detection mix was then added and incubated for further 60 min at room temperature. Chemiluminescence was determined with a microplate reader Clariostar (BMG labtech, Ortenberg, Germany).
(§2) The ability of the novel ligands according to the present invention to induce CXCR3-mediated β-arrestin 2 recruitment was investigated in the assay system PathHunter (DiscoveRx), which detects the recruitment of β-amestin 2 to the activated receptor using β-galactosidase (β-gal) enzyme fragment complementation. The inventors used two different ProLink tags, ProLink1 (PK1) and ProLink2 (PK2), of which PK2 has higher affinity for the enzyme acceptor to detect weak protein-protein interactions. The CXCR3-PK2 construct is readily able to detect the differences in the propensity of CXCL11 and CXCL10 to induce β-arrestin 2 recruitment at CXCR3. […] Table 3. Ability of the 46/VUF10661 based positive allosteric modulators to activate the CXCR3 as measured in the β-arrestin 2 recruitment assay (PathHunter, DiscoveRx).[a]

CXCR3-PK2 = target: T3, CXCR3-PK2 (Homo sapiens, UniProt P49682); assay: β-arrestin 2 recruitment assay (PathHunter, DiscoveRx), CXCR3-PK2 construct; assay type: cell-based; conditions: for CXCR3-PK2 pEC50 ± SEM: HEK293-T cells, PathHunter
T3 construct: expressed in transfected cells
T3 sequence (P49682 1-368): T1 sequence (P49682 1-368)
Procedure: as §1, §2
To investigate the efficacy of identified partial agonists in the assay format, the inventors used the CXCR3-PK2 construct, which is characterized by higher sensitivity to detect β-arrestin 2 recruitment. The compounds which appeared as weak partial agonists under CXCR3-PK1 conditions appeared as strong partial agonists under CXCR3-PK2 conditions with the efficacy increased up to 80% (Table 4). FAUC1036 reached the efficacy of 66%. […] Table 4. Ability of the compound 5 based positive allosteric modulators to activate the CXCR3 as measured in the β-arrestin 2 recruitment assay (PathHunter, DiscoveRx).[a]

[1] = % of CXCL11 mediated effect, CXCR3-PK1, read-out: CXCR3-PK1 efficacy (%) (converted)
[2] = HEK293-T cells, PathHunter, CXCR3-PK1, two to three experiments in triplicate
[3] = % of CXCL11 mediated effect, CXCR3-PK2, read-out: CXCR3-PK2 efficacy (%) (converted)

SMILES	CXCR3 Efficacy (%) ± SEM (CXCR3)	Emax (CXCR3) [%]	CXCR3 pEC50 ± SEM (CXCR3)	EC50 (CXCR3) [nM]	CXCR3-PK1 efficacy (%) (CXCR3-PK1; % of CXCL11 mediated effect, CXCR3-PK1)	Emax (CXCR3-PK1; [1]) [%]	CXCR3-PK1 pEC50 ± SEM (CXCR3-PK1; [2])	Emax (CXCR3-PK2; [3]) [%]	CXCR3-PK2 pEC50 ± SEM (CXCR3-PK2; CXCR3-PK2)	Emax (CXCR3-PK1; read-out: CXCR3-PK1 efficacy (%)) [%]	Emax (CXCR3-PK2; read-out: CXCR3-PK2 efficacy (%)) [%]	CXCR3-PK1 efficacy (%) at 10µM (CXCR3-PK1; @10µM, % of CXCL11 mediated effect, CXCR3-PK1) [%]	EC50 (CXCR3-PK1; HEK293-T cells, PathHunter, CXCR3-PK1, two to three experiments in triplicate, read-out: CXCR3-PK1 pEC50 ± SEM (converted)) [µM]	CXCR3 pEC50 ± SEM (CXCR3; listed as 46/VUF10661, 2,2,2-trifluoroacetate)	CXCR3-PK1 pEC50 ± SEM (CXCR3-PK1; HEK293-T cells, PathHunter, CXCR3-PK1, two to three experiments in triplicate, listed as 46/VUF10661, 2,2,2-trifluoroacetate)	higher efficacy than CXCL11 (CXCR3-PK1; β-arrestin 2 recruitment, relative to CXCL11) [%]
CC(C)(C)OC(=O)N[C@@H](CCCCNC(=O)[C@@H]1Cc2ccccc2CN1)C(=O)NCC(c1ccccc1)c1ccccc1 [Compound 5, Tert-butyl ((S)-1-((2,2-diphenylethyl)amino)-1-oxo-6-((S)-1,2,3,4-tetrahydroisoquinoline-3-carboxamido)hexan-2-yl)carbamate]	34±8%	34	5.7 ± 0.34 and 5.66±0.34	2200	31±2	31	6.50±0.17	79	6.71±0.33							
CC(=O)CCC(=O)N1Cc2ccccc2C[C@H]1C(=O)NCCCC[C@H](NC(=O)OC(C)(C)C)C(=O)NCC(c1ccccc1)c1ccccc1 [Compound 12, Tert-butyl((S)-1-((2,2-diphenylethyl)amino)-1-oxo-6-((S)-2-(4-oxopentanoyl)-1,2,3,4-tetrahydroisoquinoline-3-carboxamido)hexan-2-yl)carbamate]	No effect		No effect			34	6.78±0.17	63	6.64±0.33							
CC(C)(C)OC(=O)N[C@@H](CCCCNC(=O)[C@@H]1Cc2ccccc2CN1C(=O)CCc1ccccc1)C(=O)NCC(c1ccccc1)c1ccccc1 [Compound 23, Tert-butyl((S)-1-((2,2-diphenylethyl)amino)-1-oxo-6-((S)-2-(3-phenylpropanoyl)-1,2,3,4-tetrahydroisoquinoline-3-carboxamido)hexan-2-yl)carbamate]		30 ± 17	5.07±0.50			19	7.21±0.17	29	6.71±0.30							
CC(C)(C)OC(=O)N[C@@H](CCCCNC(=O)[C@@H]1Cc2ccccc2CN1C(=O)CCCC(=O)c1ccccc1)C(=O)NCC(c1ccccc1)c1ccccc1 [Compound 24, Tert-butyl ((S)-1-((2,2-diphenylelhyl)amino)-1-oxo-6-((S)-2-(5-oxo-5-phenylpentanoyl)-1,2,3,4-tetrahydroisoquinoline-3-carboxamido)hexan-2-yl)carbamate]	No efffect		No effect				6.84±1.7		6.78±0.35	20	56					
CC(C)(C)OC(=O)NCCCC[C@H](NC(=O)[C@@H]1Cc2ccccc2CN1C(=O)CCC(=O)c1ccccc1)C(=O)NCC(c1ccccc1)c1ccccc1 [Compound 44, Tert-buyl ((S)-6-((2,2-diphenylethyl)amino)-6-oxo-5-((S)-2-(4-oxo-4-phenylbutanoyl)-1,2,3,4-tetrahydroisoquinoline-3-carboxamido)hexyl)carbamate]		47 ± 3	5.88±0.10									70	< 10			
NCCCC[C@H](NC(=O)[C@@H]1Cc2ccccc2CN1C(=O)CCC(=O)c1ccccc1)C(=O)NCC(c1ccccc1)c1ccccc1.O=C(O)C(F)(F)F [Compound 46, (S)-6-((2,2-diphenylethyl)amino)-6-oxo-5-((S)-2-(4-oxo-4-phenylbutanoyl)-1,2,3,4-tetrahydroisoquinoline-3-carboxamido)hexan-1-aminium 2,2,2-trifluoroacetate, reference compound]		109 ± 3		600		139								6.2 ± 0.1 and 6.20±0.06	5.89 ± 0.07	~40
